In experiment [1] the target is T1, PhoP (Mycobacterium tuberculosis, UniProt P71814, D106C). In kind it is binding.
Experiment [2] concerns the target T1, PhoP. The class given is binding. The source holds these as a separate data set.

Read-outs that look alike come from different tables or passages of the source.

For the compound `CCCCCCCCCC(CC)c1ccc(S(=O)(=O)O)cc1` (centres unmarked) [NCGC00244580], the IC50 in experiment [1] worked out at 35.8 µM. In other words, the double-digit micromolar range.
NCGC00161636 yielded an IC50 in experiment [2] of 15.5 µM.

The values are drawn from paper PMC5542402 (Combinatorial chemistry & high throughput screening, 2016).
